According to publication PMC12250302, “Synthesis, Antimicrobial Activities, and Model of Action of Novel Tetralone Derivatives Containing Aminoguanidinium Moiety” (International Journal of Molecular Sciences, 2025):
Values after ≈ are worked out from the molar mass of the structure shown.

Key:
Assay in all cases: MIC and MBC testing, broth microdilution
P. aeruginosa ATCC 27853 = format: cell-based, Pseudomonas aeruginosa; conditions: Pseudomonas aeruginosa; for MIC: ATCC27853, 18 h, read-out: MIC; for MBC: ATCC27853, read-out: MBC
Description: (§1) The minimum inhibitory concentrations (MICs) and minimum bactericidal concentrations (MBCs) of the synthesized compounds effective against ESKAPE strains, S. aureus clinical isolates, and MRSA were investigated by the broth dilution method. Levofloxacin is a broad-spectrum antibacterial agent that is widely used in the treatment of ESKAPE infections. Therefore, levofloxacin was selected as the positive control for the preliminary activity screening. DMSO (0.1%) was selected as the negative control.
(§2) The minimum inhibitory concentration (MIC) of all synthesized compounds was tested by the broth microdilution method. In brief, compounds dissolved in DMSO were diluted twice continuously in a 96-well plate with MH broth. The ESKAPE pathogens (E. coli ATCC 25922, S. aureus ATCC 29213, K. pneumoniae ATCC 700603, A. baumannii ATCC 19606, P. aeruginosa ATCC 27853, and E. faecium ATCC 35667), clinical S. aureus isolates (LMY45, LMY46, LMY47, and LMY48) and methicillin-resistant Staphylococcus aureus (MRSA-1 and MRSA-2) were cultured in MH broth to logarithmic growth phase and then diluted to 1 × 10^6 CFU/mL in MH broth. Subsequently, the diluted bacterial solution was mixed with the diluted compound solution in a 96-well plate and incubated at 37 °C for a duration of 18 h. The MIC of the compounds was recorded as the lowest concentration at which no visible growth was observed. […] Each concentration was replicated thrice.

E. faecium ATCC 35667 = format: cell-based, Enterococcus faecium; conditions: Enterococcus faecium, ATCC35667, E. faecium ATCC 35667; for MIC: 18 h, read-out: MIC; for MBC: read-out: MBC
Description: as §1, §2

A. baumannii ATCC 19606 = format: cell-based, Acinetobacter baumannii; conditions: Acinetobacter baumannii; for MIC: ATCC19606, 18 h, read-out: MIC; for MBC: ATCC19606, read-out: MBC
Description: as §1, §2

[1] = tested on: clinical S. aureus isolate LMY46; format: cell-based, Staphylococcus aureus; conditions: Staphylococcus aureus, LMY46; for MIC: 18 h, read-out: MIC; for MBC: read-out: MBC
Experimental: (§3) Furthermore, the MBC values of the compounds were detected.
as §2, with “h.” for “h. The MIC of the compounds was recorded as the lowest concentration at which no visible growth was observed.”

[2] = tested on: clinical S. aureus isolate LMY45; format: cell-based, Staphylococcus aureus; conditions: Staphylococcus aureus, LMY45; for MIC: 18 h, read-out: MIC; for MBC: read-out: MBC
Experimental: as §3
as §2, with “h.” for “h. The MIC of the compounds was recorded as the lowest concentration at which no visible growth was observed.”

MRSA-1 = format: cell-based, Staphylococcus aureus; conditions: Staphylococcus aureus, MRSA-1; for MIC: 18 h, read-out: MIC; for MBC: read-out: MBC
Experimental: as §3
as §2, with “h.” for “h. The MIC of the compounds was recorded as the lowest concentration at which no visible growth was observed.”

[3] = tested on: clinical S. aureus isolate LMY47; format: cell-based, Staphylococcus aureus; conditions: Staphylococcus aureus, LMY47; for MIC: 18 h, read-out: MIC; for MBC: read-out: MBC
Experimental: as §3
as §2, with “h.” for “h. The MIC of the compounds was recorded as the lowest concentration at which no visible growth was observed.”

[4] = tested on: clinical S. aureus isolate LMY48; format: cell-based, Staphylococcus aureus; conditions: Staphylococcus aureus, LMY48; for MIC: 18 h, read-out: MIC; for MBC: read-out: MBC
Experimental: as §3
as §2, with “h.” for “h. The MIC of the compounds was recorded as the lowest concentration at which no visible growth was observed.”

MRSA-2 = format: cell-based, Staphylococcus aureus; conditions: Staphylococcus aureus, MRSA-2; for MIC: 18 h, read-out: MIC; for MBC: read-out: MBC
Experimental: as §3
as §2, with “h.” for “h. The MIC of the compounds was recorded as the lowest concentration at which no visible growth was observed.”

S. aureus ATCC 29213 = format: cell-based, Staphylococcus aureus; conditions: Staphylococcus aureus, ATCC29213, S. aureus ATCC 29213; for MIC: 18 h, read-out: MIC; for MBC: read-out: MBC
Description: as §1, §2

[5] = tested on: K. pneumoniae ATCC 700603; format: cell-based, Klebsiella pneumoniae; conditions: Klebsiella pneumoniae; for MIC: ATCC700603, 18 h, read-out: MIC; for MBC: ATCC700603, read-out: MBC
Description: as §1, §2

E. coli ATCC 25922 = format: cell-based, Escherichia coli; conditions: Escherichia coli; for MIC: ATCC25922, 18 h, read-out: MIC; for MBC: ATCC25922, read-out: MBC
Description: as §1, §2

Structure (SMILES)	MIC (P. aeruginosa ATCC 27853)	MIC (E. faecium ATCC 35667)	MBC (E. faecium ATCC 35667)	MIC (A. baumannii ATCC 19606)	MIC [1]	MBC [1]	MIC [2]	MBC [2]	MIC (MRSA-1)	MBC (MRSA-1)	MIC [3]	MBC [3]	MIC [4]	MBC [4]	MIC (MRSA-2)	MBC (MRSA-2)	MIC (S. aureus ATCC 29213)	MBC (S. aureus ATCC 29213)	MIC [5]	MIC (E. coli ATCC 25922)	also measured
[H]/N=C(\N)NN=C1CCCc2cc(OCc3ccc(C#N)cc3)ccc21 [Compound 1V, (E)-2-(6-((4-cyanobenzyl)oxy)-3,4-dihydronaphthalen-1(2H)-ylidene)hydrazine-1-carboximidamide]	> 32 µg/mL	16 µg/mL (≈ 48 µM)	> 32 µg/mL	16 µg/mL (≈ 48 µM)	4 µg/mL (≈ 12 µM)	32 µg/mL (≈ 96 µM)	4 µg/mL (≈ 12 µM)	8 µg/mL (≈ 24 µM)	8 µg/mL (≈ 24 µM)	16 µg/mL (≈ 48 µM)	8 µg/mL (≈ 24 µM)	32 µg/mL (≈ 96 µM)	8 µg/mL (≈ 24 µM)	8 µg/mL (≈ 24 µM)	8 µg/mL (≈ 24 µM)	8 µg/mL (≈ 24 µM)	8 µg/mL (≈ 24 µM)	32 µg/mL (≈ 96 µM)	32 µg/mL (≈ 96 µM)	16 µg/mL (≈ 48 µM)	MBC (A. baumannii ATCC 19606): 32 µg/mL (≈ 96 µM); MBC (E. coli ATCC 25922): 32 µg/mL (≈ 96 µM)
[H]/N=C(\N)NN=C1CCCc2cc(OCc3cccc(-c4ccccc4)c3)ccc21 [Compound 1W, (E)-2-(6-([1,1’-biphenyl]-3-ylmethoxy)-3,4-dihydronaphthalen-1(2H)-ylidene)hydrazine-1-carboximidamide]	> 32 µg/mL	2 µg/mL (≈ 5.2 µM)	16 µg/mL (≈ 41.6 µM)	32 µg/mL (≈ 83.2 µM)	2 µg/mL (≈ 5.2 µM)	8 µg/mL (≈ 20.8 µM)	2 µg/mL (≈ 5.2 µM)	8 µg/mL (≈ 20.8 µM)	4 µg/mL (≈ 10.4 µM)	32 µg/mL (≈ 83.2 µM)	2 µg/mL (≈ 5.2 µM)	8 µg/mL (≈ 20.8 µM)	2 µg/mL (≈ 5.2 µM)	4 µg/mL (≈ 10.4 µM)	2 µg/mL (≈ 5.2 µM)	4 µg/mL (≈ 10.4 µM)	2 µg/mL (≈ 5.2 µM)	16 µg/mL (≈ 41.6 µM)	> 32 µg/mL	32 µg/mL (≈ 83.2 µM)	MBC (A. baumannii ATCC 19606): 32 µg/mL (≈ 83.2 µM); MBC (E. coli ATCC 25922): 32 µg/mL (≈ 83.2 µM)
[H]/N=C(\N)NN=C1CCCc2cc(OCCCCC)ccc21 [Compound 2B, (E)-2-(6-(pentyloxy)-3,4-dihydronaphthalen-1(2H)-ylidene)hydrazine-1-carboximidamide]	16 µg/mL (≈ 55.5 µM)	4 µg/mL (≈ 13.9 µM)	16 µg/mL (≈ 55.5 µM)	8 µg/mL (≈ 27.7 µM)	8 µg/mL (≈ 27.7 µM)	16 µg/mL (≈ 55.5 µM)	8 µg/mL (≈ 27.7 µM)	16 µg/mL (≈ 55.5 µM)	32 µg/mL (≈ 111 µM)	32 µg/mL (≈ 111 µM)	4 µg/mL (≈ 13.9 µM)	8 µg/mL (≈ 27.7 µM)	2 µg/mL (≈ 6.93 µM)	2 µg/mL (≈ 6.93 µM)	4 µg/mL (≈ 13.9 µM)	4 µg/mL (≈ 13.9 µM)	1 µg/mL (≈ 3.47 µM)	8 µg/mL (≈ 27.7 µM)	8 µg/mL (≈ 27.7 µM)	4 µg/mL (≈ 13.9 µM)	MBC (P. aeruginosa ATCC 27853): 32 µg/mL (≈ 111 µM); MBC (A. baumannii ATCC 19606): 8 µg/mL (≈ 27.7 µM); MBC [5]: 8 µg/mL (≈ 27.7 µM); MBC (E. coli ATCC 25922): 8 µg/mL (≈ 27.7 µM)
[H]/N=C(\N)NN=C1CCCc2cc(OCCCCCC)ccc21 [Compound 2C, (E)-2-(6-(hexyloxy)-3,4-dihydronaphthalen-1(2H)-ylidene)hydrazine-1-carboximidamide]	8 µg/mL (≈ 26.5 µM)	2 µg/mL (≈ 6.61 µM)	8 µg/mL (≈ 26.5 µM)	4 µg/mL (≈ 13.2 µM)	8 µg/mL (≈ 26.5 µM)	16 µg/mL (≈ 52.9 µM)	8 µg/mL (≈ 26.5 µM)	32 µg/mL (≈ 106 µM)	4 µg/mL (≈ 13.2 µM)	16 µg/mL (≈ 52.9 µM)	2 µg/mL (≈ 6.61 µM)	8 µg/mL (≈ 26.5 µM)	4 µg/mL (≈ 13.2 µM)	32 µg/mL (≈ 106 µM)	2 µg/mL (≈ 6.61 µM)	4 µg/mL (≈ 13.2 µM)	1 µg/mL (≈ 3.31 µM)	8 µg/mL (≈ 26.5 µM)	8 µg/mL (≈ 26.5 µM)	4 µg/mL (≈ 13.2 µM)	MBC (P. aeruginosa ATCC 27853): 16 µg/mL (≈ 52.9 µM); MBC (A. baumannii ATCC 19606): 4 µg/mL (≈ 13.2 µM); MBC [5]: 8 µg/mL (≈ 26.5 µM); MBC (E. coli ATCC 25922): 4 µg/mL (≈ 13.2 µM)
[H]/N=C(\N)NN=C1CCCc2cc(OCCCCCCCC)ccc21 [Compound 2E, (E)-2-(6-(octyloxy)-3,4-dihydronaphthalen-1(2H)-ylidene)hydrazine-1-carboximidamide]	32 µg/mL (≈ 96.8 µM)	2 µg/mL (≈ 6.05 µM)	4 µg/mL (≈ 12.1 µM)	8 µg/mL (≈ 24.2 µM)	1 µg/mL (≈ 3.03 µM)	4 µg/mL (≈ 12.1 µM)	1 µg/mL (≈ 3.03 µM)	4 µg/mL (≈ 12.1 µM)	1 µg/mL (≈ 3.03 µM)	8 µg/mL (≈ 24.2 µM)	2 µg/mL (≈ 6.05 µM)	4 µg/mL (≈ 12.1 µM)	1 µg/mL (≈ 3.03 µM)	2 µg/mL (≈ 6.05 µM)	1 µg/mL (≈ 3.03 µM)	2 µg/mL (≈ 6.05 µM)	2 µg/mL (≈ 6.05 µM)	2 µg/mL (≈ 6.05 µM)	> 32 µg/mL	4 µg/mL (≈ 12.1 µM)	MBC (P. aeruginosa ATCC 27853): > 32 µg/mL; MBC (A. baumannii ATCC 19606): 32 µg/mL (≈ 96.8 µM); MBC (E. coli ATCC 25922): 16 µg/mL (≈ 48.4 µM)
[H]/N=C(\N)NN=C1CCCc2cc(OCCCCCCCCC)ccc21 [Compound 2F, (E)-2-(6-(nonyloxy)-3,4-dihydronaphthalen-1(2H)-ylidene)hydrazine-1-carboximidamide]	> 32 µg/mL	2 µg/mL (≈ 5.81 µM)	4 µg/mL (≈ 11.6 µM)	> 32 µg/mL	2 µg/mL (≈ 5.81 µM)	4 µg/mL (≈ 11.6 µM)	2 µg/mL (≈ 5.81 µM)	4 µg/mL (≈ 11.6 µM)	2 µg/mL (≈ 5.81 µM)	2 µg/mL (≈ 5.81 µM)	2 µg/mL (≈ 5.81 µM)	8 µg/mL (≈ 23.2 µM)	1 µg/mL (≈ 2.9 µM)	2 µg/mL (≈ 5.81 µM)	1 µg/mL (≈ 2.9 µM)	2 µg/mL (≈ 5.81 µM)	2 µg/mL (≈ 5.81 µM)	8 µg/mL (≈ 23.2 µM)	> 32 µg/mL	> 32 µg/mL	–
[H]/N=C(\N)NN=C1CCCc2cc(OCCCCCCCCCC)ccc21 [Compound 2G, (E)-2-(6-(decyloxy)-3,4-dihydronaphthalen-1(2H)-ylidene)hydrazine-1-carboximidamide]	> 32 µg/mL	2 µg/mL (≈ 5.58 µM)	8 µg/mL (≈ 22.3 µM)	> 32 µg/mL	4 µg/mL (≈ 11.2 µM)	8 µg/mL (≈ 22.3 µM)	4 µg/mL (≈ 11.2 µM)	16 µg/mL (≈ 44.6 µM)	4 µg/mL (≈ 11.2 µM)	16 µg/mL (≈ 44.6 µM)	2 µg/mL (≈ 5.58 µM)	2 µg/mL (≈ 5.58 µM)	2 µg/mL (≈ 5.58 µM)	4 µg/mL (≈ 11.2 µM)	4 µg/mL (≈ 11.2 µM)	4 µg/mL (≈ 11.2 µM)	2 µg/mL (≈ 5.58 µM)	8 µg/mL (≈ 22.3 µM)	> 32 µg/mL	> 32 µg/mL	–
[H]/N=C(\N)NN=C1CCCc2cc(OCCCCCCCCCCC)ccc21 [Compound 2H, (E)-2-(6-(undecyloxy)-3,4-dihydronaphthalen-1(2H)-ylidene)hydrazine-1-carboximidamide]	> 32 µg/mL	4 µg/mL (≈ 10.7 µM)	8 µg/mL (≈ 21.5 µM)	> 32 µg/mL	2 µg/mL (≈ 5.37 µM)	16 µg/mL (≈ 42.9 µM)	4 µg/mL (≈ 10.7 µM)	8 µg/mL (≈ 21.5 µM)	4 µg/mL (≈ 10.7 µM)	16 µg/mL (≈ 42.9 µM)	2 µg/mL (≈ 5.37 µM)	16 µg/mL (≈ 42.9 µM)	4 µg/mL (≈ 10.7 µM)	4 µg/mL (≈ 10.7 µM)	4 µg/mL (≈ 10.7 µM)	16 µg/mL (≈ 42.9 µM)	> 32 µg/mL	–	> 32 µg/mL	> 32 µg/mL	–
